These results are taken from article PMC2766550 (Peptides, 2009).

For assay [1], the target named is T1, hGRP-receptor (Homo sapiens, UniProt P30550). In words: [3H]inositol phosphate generation, HuTu-80 cells. The format is cell-based. Particulars: for [3H]IP HuTu-80 (hGRP-R) Ag/Antag: agonist/antagonist classification, up to 10 μM.
The target of assay [2] is T2, hBRS-3 receptor (Homo sapiens, UniProt P32247).
T2 sequence (P32247 1-399): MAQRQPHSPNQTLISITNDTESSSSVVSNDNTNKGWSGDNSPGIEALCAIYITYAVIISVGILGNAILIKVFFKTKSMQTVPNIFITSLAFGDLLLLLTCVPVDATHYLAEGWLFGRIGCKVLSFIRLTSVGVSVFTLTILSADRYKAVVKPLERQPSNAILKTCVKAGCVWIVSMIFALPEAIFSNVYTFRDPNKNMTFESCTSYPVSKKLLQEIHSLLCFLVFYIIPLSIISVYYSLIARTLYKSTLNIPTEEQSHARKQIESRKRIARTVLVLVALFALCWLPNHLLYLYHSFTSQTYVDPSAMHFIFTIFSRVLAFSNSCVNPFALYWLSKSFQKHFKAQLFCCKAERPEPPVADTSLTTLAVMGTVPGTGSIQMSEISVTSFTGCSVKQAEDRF
In words: Whole cell radioligand binding, hBRS-3 transfected Balb 3T3 cells.

Assay [3] has as its target T1, hGRP-receptor. In words: [3H]inositol phosphate generation, hGRP-receptor transfected Balb 3T3 cells. In kind it is cell-based. Particulars: for [3H]IP hGRPR-R-Balb-3T3 Ag/Antag: agonist/antagonist classification, up to 10 μM.
In assay [4] the target is T1, hGRP-receptor. The assay can be described thus: Whole cell radioligand binding, HuTu-80 cells.
For assay [5], the target named is T3, hNMB-receptor (Homo sapiens, UniProt P28336). The assay can be described thus: Whole cell radioligand binding, hNMB-receptor transfected NCI-H1299 cells.
T3 sequence (P28336 whole entry): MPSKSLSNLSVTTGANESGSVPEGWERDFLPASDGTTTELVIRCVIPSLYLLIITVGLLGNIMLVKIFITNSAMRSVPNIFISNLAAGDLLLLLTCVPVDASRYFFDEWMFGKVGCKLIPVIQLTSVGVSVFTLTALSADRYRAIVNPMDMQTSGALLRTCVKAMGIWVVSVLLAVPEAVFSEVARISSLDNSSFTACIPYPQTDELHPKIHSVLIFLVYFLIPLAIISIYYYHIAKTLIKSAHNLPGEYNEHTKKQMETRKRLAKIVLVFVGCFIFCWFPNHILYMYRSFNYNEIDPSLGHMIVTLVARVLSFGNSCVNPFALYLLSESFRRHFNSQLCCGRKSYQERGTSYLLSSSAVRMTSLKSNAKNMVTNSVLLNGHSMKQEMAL
In assay [6] the target is T1, hGRP-receptor. In words: Whole cell radioligand binding, hGRP-receptor transfected Balb 3T3 cells. Particulars: b34 values for receptors expressed in Balb 3T3 cells.
Assay [7] concerns the target T3, hNMB-receptor. In words: Whole cell radioligand binding, hNMB-receptor transfected Balb 3T3 cells. Particulars: for IC50: IC50 hNMB-R Balb-3T3, hNMB-receptor transfected Balb 3T3 cells, 125I-[D-Tyr0]NMB, 1 h, 22°C, mean ± S.E.
In assay [8] the target is T3, hNMB-receptor. The assay can be described thus: cell-based. Particulars: for [3H]IP NCI-H1299 (hNMB-R) Ag/Antag: agonist/antagonist classification, up to 10 μM.
Assay [9] relates to hGRP-receptors. Particulars: cited from earlier work.
The target in assay [10] is T3, hNMB-receptor. The format is cell-based. Particulars: for [3H]IP hNMB-R-Balb-3T3 Ag/Antag: agonist/antagonist classification, up to 10 μM; for agonist activity at hNMB-receptor: concentrations up to 10 μM, hNMB-receptor transfected Balb 3T3 or NCI-H1299 cells.
Assay [11] deals with T3, hNMB-receptor. Particulars: cited from earlier work.

Values joined by “and” are separate entries in the source; they are usually repeats but may differ in a detail not shown here. Equal entries are not always repeated. Where two headings read alike, the source gives them in different places. Square brackets hold non-standard residues; d marks the D form. Peptide text beside a SMILES is read from it. dPhe(F5) = N[C@H](Cc1c(F)c(F)c(F)c(F)c1F)C(=O)O

T1 sequence (P30550 whole entry): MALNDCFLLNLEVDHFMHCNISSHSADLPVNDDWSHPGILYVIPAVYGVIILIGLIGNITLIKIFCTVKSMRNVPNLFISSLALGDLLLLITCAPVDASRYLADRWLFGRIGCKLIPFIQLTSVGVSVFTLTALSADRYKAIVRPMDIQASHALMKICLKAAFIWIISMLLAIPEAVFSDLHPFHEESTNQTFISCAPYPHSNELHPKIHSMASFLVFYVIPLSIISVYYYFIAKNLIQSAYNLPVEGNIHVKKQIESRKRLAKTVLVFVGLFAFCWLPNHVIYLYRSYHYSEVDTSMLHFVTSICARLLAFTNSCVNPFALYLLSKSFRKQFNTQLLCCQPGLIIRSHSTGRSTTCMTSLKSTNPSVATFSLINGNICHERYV

As a reminder, the IC50 is the concentration at which inhibition is half-maximal. As to `COC(=O)[C@H](CC(C)C)NC(=O)[C@H](Cc1c[nH]cn1)NC(=O)[C@@H](C)NC(=O)[C@@H](NC(=O)[C@H](C)NC(=O)[C@H](Cc1c[nH]c2ccccc12)NC(=O)[C@H](CCC(N)=O)NC(=O)[C@H](N)Cc1c(F)c(F)c(F)c(F)c1F)C(C)C` [Peptide 18, [D-F-5, Phe^6, D-Ala^11]Bn(6-13)Metyl ester (ME)] (H-[dPhe(F5)]QWAV[dA]HL-OMe), the IC50 in [1] is 4.2 ± 0.9 nM; in assay [2], greater than 10 µM; in assay [3] it was 3.6 ± 0.2 nM; in [4], 0.12 ± 0.01 nM; in assay [5] it was greater than 10 µM; in assay [7], greater than 10000 nM. For the same compound, the “selectivity for hGRP-receptor over hNMB-receptor (binding affinities)” value (“selectivity for hGRP-receptor” below) in assay [6] is > 11,000 fold and > 10,000 fold.

As for `CCCNC(=O)[C@H](CC(C)C)NC(=O)[C@H](Cc1c[nH]cn1)NC(=O)CNC(=O)[C@@H](NC(=O)[C@H](C)NC(=O)[C@H](Cc1c[nH]c2ccccc12)NC(=O)[C@H](CCC(N)=O)NC(=O)[C@H](N)Cc1ccccc1)C(C)C` [Peptide 11, [D-Phe^6-Bn](6-13)Propylamide (PA)], the IC50 was 36.3 ± 1 nM in assay [1]; 1.91 ± 0.3 µM in assay [2]; 31 ± 1 nM in assay [3]; 0.39 ± 0.12 nM in assay [4]; 3.09 ± 0.07 µM in assay [5]; 2440 ± 160 nM in assay [7]. Besides, the “selectivity for hGRP-receptor” value in [6] was ≥ 1,000 fold.

The term Ki denotes a dissociation constant, usually derived from enzyme kinetics or from competition with a known ligand. As for `COc1ccc(C2(CNC(=O)C(C)(Cc3c[nH]c4ccccc34)NC(=O)Nc3ccc([N+](=O)[O-])cc3)CCCCC2)nc1` (stereo not drawn) [Peptide 33, 3-(1H-Indol-3-yl)-N-[1-(5-methoxy-pyridin-2-yl)-cyclohexylmethyl]-2-methyl-2-[3-(4-nitro-phenyl)-ureido]-propionamide, reference compound], in assay [1], half-maximal inhibition (IC50) required 275 ± 13 nM and the “[3H]IP HuTu-80 (hGRP-R) Ag/Antag” value is reported as “Antag”. For the same compound, the IC50 in [2] was greater than 10 µM. Also, the “[3H]IP NCI-H1299 (hNMB-R) Ag/Antag” value in assay [8] is “Antag”. For the same compound, the “affinity for hGRP-receptors in a second study” value in [9] was 20 to 30 nM. Further, the Ki in assay [9] (read-out: Ki for hGRP-receptors in a previous study) is 1 nM. The “[3H]IP hGRPR-R-Balb-3T3 Ag/Antag” value in assay [3] is given as “Antag”. In [10], the “[3H]IP hNMB-R-Balb-3T3 Ag/Antag” value is “Antag” and the “agonist activity at hNMB-receptor” value is given as “did not have agonist activity”. The compound also had an IC50 in assay [4] of 170 ± 11 nM.

In the case of `COC(=O)[C@H](CC(C)C)NC(=O)[C@H](Cc1c[nH]cn1)NC(=O)CNC(=O)[C@@H](NC(=O)[C@H](C)NC(=O)[C@H](Cc1c[nH]c2ccccc12)NC(=O)[C@H](CCC(N)=O)NC(=O)[C@H](N)Cc1ccccc1)C(C)C` [Peptide 17, [D-Phe^6]Bn-(6-13)Methyl ester (ME)], the IC50 was 10.9 ± 1.5 nM in assay [1]; 5.29 ± 1.99 µM in assay [2]; greater than 10000 nM in assay [8]; 15.5 ± 1 nM in [3]; 3.98 ± 0.8 nM in assay [4]; greater than 10 µM in assay [5]. This compound displayed an IC50 in assay [7] greater than 10000 nM. In addition, in assay [6], the “selectivity for hGRP-receptor” value was > 10,000 fold.

Turning to `CC(Cc1c[nH]c2ccccc12)(NC(=O)Nc1ccc([N+](=O)[O-])cc1)C(=O)NCC1(c2ccccn2)CCCCC1` (stereo not drawn) [Peptide 34, 3-(1H-Indol-3-yl)-2-methyl-2-[3(4-nitro-phenyl)-ureido]-N-(1-pyridin-2-yl-cyclohexylmethyl)-propionamide, reference compound], the IC50 in assay [1] was 1780 ± 57 nM; in [2], greater than 10 µM; in assay [11] (read-out: IC50 for hNMB-receptors, other studies on human cells) it was 15 nM; in [8], 24.5 ± 1.2 nM; in assay [3], greater than 3000 nM; in [4] it was 1740 ± 105 nM. Further, the IC50 in assay [5] came to 0.00025 ± 2e-05 µM; in assay [7] it was 0.51 ± 0.02 nM. Moreover, in assay [1] (Table 5 species comparison, human values of this study (HuTu-80)), the “hGRPR Ag/Antag” value is on record as “Antag”. The “[3H]IP HuTu-80 (hGRP-R) Ag/Antag” value in assay [1] is “Antag”. Moreover, in assay [11], the “hNMB- or rNMB-receptor selectivity in other studies” value is given as 40 fold. Also, in assay [8] (Table 5 species comparison, human values of this study (NCI-H1299)), the “hNMBR Ag/Antag” value was “Antag”. Further, the “[3H]IP NCI-H1299 (hNMB-R) Ag/Antag” value in assay [8] is “Antag”. Moreover, in assay [3], the “[3H]IP hGRPR-R-Balb-3T3 Ag/Antag” value is given as “No act”. The “selectivity for hNMB-receptor over hGRP-receptor based on potency for inhibiting agonist-stimulated [3H]IP” value in [10] is listed as 33 to 100 fold. The “[3H]IP hNMB-R-Balb-3T3 Ag/Antag” value in assay [10] was “Antag”. The “agonist activity at hNMB-receptor” value in [10] is given as “did not have agonist activity”. Further, in assay [7] (listed as PD168368), the “selectivity for hNMB-receptor over hGRP-receptor (binding affinities)” value is 7,000 fold.

Consider `CCOC(=O)[C@H](CC(C)C)NC(=O)[C@H](Cc1c[nH]cn1)NC(=O)CNC(=O)[C@@H](NC(=O)[C@H](C)NC(=O)[C@H](Cc1c[nH]c2ccccc12)NC(=O)[C@H](CCC(N)=O)NC(=O)[C@H](N)Cc1ccccc1)C(C)C` [Peptide 20, [D-Phe^6]Bn-(6-13)Ethyl ester], for which the IC50 in assay [1] is 1.4 ± 0.8 nM; in [2] it was 5.3 ± 1.4 µM; in assay [3], 2 ± 0.3 nM; in assay [4], 0.14 ± 0.03 nM; in [5], greater than 10 µM; in [7] it was greater than 10000 nM. Also, in assay [6], the “selectivity for hGRP-receptor” value is listed as > 10,000 fold.
